Literature values in PMC7142633, “Impact of B-Ring Substitution and Acylation with Hydroxy Cinnamic Acids on the Inhibition of Porcine α-Amylase by Anthocyanin-3-Glycosides” (Foods, 2020).

Molecular target: porcine pancreatic α-amylase
Parameters: method as in doi:10.1016/j.jff.2015.11.042
Details: cited from earlier work

Structure (SMILES): COc1cc(-c2[o+]c3cc(O)cc(O)c3cc2O[C@@H]2O[C@H](CO)[C@@H](O)[C@H](O)[C@H]2O)ccc1O [Peo-glc, peonidin-3-glucoside]
- IC50: 75 ± 7 µM
- inhibition type: competitive inhibition type
